Article PMC4826176, “Identification of H7 as a novel peroxiredoxin I inhibitor to induce differentiation of leukemia cells” (Oncotarget, 2015)

Legend:
[1] = molecular target: T1, Prdx I (recombinant human peroxiredoxin I) (Homo sapiens, UniProt Q06830); assay: surface plasmon resonance (Biacore T200), single-cycle kinetics; format: binding; conditions: read-out: dissociation constant
T1 construct: gene PRDX1; full-length, N-terminal His6 tag (pET28a), expressed in E. coli BL21, purified
T1 sequence (Q06830 2-199): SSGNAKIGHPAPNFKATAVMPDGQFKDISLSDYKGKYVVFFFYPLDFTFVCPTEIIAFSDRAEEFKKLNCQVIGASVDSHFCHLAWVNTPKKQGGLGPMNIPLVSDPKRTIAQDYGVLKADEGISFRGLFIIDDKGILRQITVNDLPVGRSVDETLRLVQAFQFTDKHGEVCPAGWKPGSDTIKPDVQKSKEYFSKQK
Text: surface plasmon resonance (Biacore T200), single-cycle kinetics on Prdx I (recombinant human peroxiredoxin I) | H7 rapidly associated and disassociated from the immobilized Prdx I at a dissociation constant of […]

[2] = molecular target: T2, Prdx I (endogenous, NB4 cell lysate) (Homo sapiens, UniProt Q06830); assay: cellular thermal shift assay (CETSA) in lysate, Western blot; format: biochemical; conditions: NB4 lysate in PBS, heated 3 min at different temperatures (75.9°C for dose dependence)
T2 construct: gene PRDX1; endogenous untagged protein in NB4 cell lysate, detected by Western blot
T2 sequence (Q06830 2-199): T1 sequence (Q06830 2-199)

[3] = molecular target: T1, Prdx I (recombinant human peroxiredoxin I); assay: peroxidase activity, Trx-Trx reductase-NADPH-coupled spectrophotometric assay; format: biochemical

Kd [1]: 1.57 µM
IC50 [3]: 7.85 µM
SMILES: CCc1ccc(S(=O)(=O)N=C2C=CC(=O)c3ccccc32)cc1 [H7]
cellular thermal shift assay (CETSA) in lysate, Western blot [2]: addition of H7 but not DMSO into the cell lysates increased the stability of Prdx I
